# Test results taken from patent US10568819B2, “Skin enhancing compositions and methods” (Sytheon Limited, priority 2016, dated 2020).
# pIC50: −log10 of the molar value. Where two headings read alike, the source gives them in different places.
# How the values were obtained:
# iNOS = iNOS (Homo sapiens, UniProt P35228); test: Reduction of iNOS activity; format: biochemical
# Excerpt: Accordingly, an investigation was undertaken to assess the efficacy of compounds according to the present teaching as compared to compounds that are closely structurally related thereto in inhibiting NO product.
# [1] = system: mitochondrial dehydrogenases; test: MTT assay of cellular metabolism after UVA irradiation; format: cell-based; settings: 3 hours after irradiation
# Description: The study was conducted in accordance with the protocols of Berridge et al, (M V Berridge & A S Tan, Characterization of the cellular reduction of 3-(4,5-dimethylthiazol-2-yl)-2,5-diphenyltetrazolium bromide (MTT): subcellular localization, substrate dependence, and involvement of mitochondrial electron transport in MTT reduction, Arch. Biochem. Biophys. 303:474-482, 1993) and Voigt (W Voigt, Sulforhodamine B assay and chemosensitivity, Methods Mol Med, 110:39-48, 2005). Cellular metabolism is determined using the MTT assay to measure the activity of mitochondrial dehydrogenases, such as succinate dehydrogenase, which are implicated in the respiratory electron transport chain in mitochondria [M V Berridge & Tan Biochem Biophys, 303:474-482, 1993]. Additionally, the samples were subject to the Mitochondrial ToxGlo Assay (Promega Technical Manual, G8000 and G8001), which is a cell-based assay method that has been developed to quantify potential mitochondrial dysfunction as a result of xenobiotic exposure, using a sequential-addition, multiplexed chemistry.
# Table 8 presents the result on the effect of UVA radiation on cell metabolism 3 hours after irradiation. As indicated, Compound 1 improves cell metabolism, even at a very low use concentration. Table 9 presents the effect of 24 hour pre-incubation on UVA-induced mitochondrial damage measured by ATP production in human dermal fibroblasts. […] Finally. Table 10 presents the effect of 24 hour pre-incubation on UVA-induced plasma membrane disruption in human dermal fibroblasts. As indicated, Compound 1 almost completely reversed plasma membrane disruption, again at a very low use concentration.
# COL1A1 = test: DNA microarray gene expression, COL1A1; format: cell-based
# Excerpt: (§1) In light of the efficacy of the aryl alkanones ire addressing many of the molecular/biomolecular processes damaged by UV exposure, a study was undertaken to assess whether these compounds would also be effective in addressing symptoms associated with non-UV induced skin aging including chronological aging as well as disease conditions that likewise adversely affect skin processes. The studies conducted involves DNA microarray, PCR array, cell culture, enzyme inhibitory activity.
# COL4A1 = test: DNA microarray gene expression, COL4A1; format: cell-based
# Excerpt: as §1
# COL11A1 [2] = test: DNA microarray gene expression, COL11A1; format: cell-based
# Excerpt: as §1
# COL14A1 [3] = test: DNA microarray gene expression, COL14A1; format: cell-based
# Excerpt: as §1
# ELN = test: DNA microarray gene expression, ELN; format: cell-based
# Excerpt: as §1
# TIMP2 = test: DNA microarray gene expression, TIMP2; format: cell-based
# Excerpt: as §1
# COL5A1 = test: PCR array gene expression, COL5A1; format: cell-based
# Excerpt: as §1
# COL11A1 [4] = test: PCR array gene expression, COL11A1; format: cell-based
# Excerpt: as §1
# COL14A1 [5] = test: PCR array gene expression, COL14A1; format: cell-based
# Excerpt: as §1
# LAMC1 = test: PCR array gene expression, LAMC1; format: cell-based
# Excerpt: as §1
# ITGA1 = test: PCR array gene expression, ITGA1; format: cell-based
# Excerpt: as §1
# ITGB3 = test: PCR array gene expression, ITGB3; format: cell-based
# Excerpt: as §1
# ITGB5 = test: PCR array gene expression, ITGB5; format: cell-based
# Excerpt: as §1
# MMP3 = test: PCR array gene expression, MMP3; format: cell-based
# Excerpt: as §1
# Collagen type 4 = test: Collagen 4 boosting in human dermal fibroblasts; format: cell-based; settings: HDF, incubation time of 6 days
# Description: In this study, an investigation was performed in relation to the ability, if any, of the aryl alkanones to boost the production of Collagens 1, 3 and 4 proteins. […] In this study, the cells used were human dermal fibroblasts (HDF), passage 12 (Cell Applications, San Diego, Calif.) which underwent an incubation time of 6 days.
# MMP-1 enzyme = molecular target: T1, MMP-1 enzyme (Homo sapiens, UniProt P03956); test: MMP-1 inhibition; format: biochemical; settings: read-out: Inhibitory concentration (IC50), MMP-1
# T1 construct: purchased Anaspec
# T1 sequence (P03956 100-469, species assumed): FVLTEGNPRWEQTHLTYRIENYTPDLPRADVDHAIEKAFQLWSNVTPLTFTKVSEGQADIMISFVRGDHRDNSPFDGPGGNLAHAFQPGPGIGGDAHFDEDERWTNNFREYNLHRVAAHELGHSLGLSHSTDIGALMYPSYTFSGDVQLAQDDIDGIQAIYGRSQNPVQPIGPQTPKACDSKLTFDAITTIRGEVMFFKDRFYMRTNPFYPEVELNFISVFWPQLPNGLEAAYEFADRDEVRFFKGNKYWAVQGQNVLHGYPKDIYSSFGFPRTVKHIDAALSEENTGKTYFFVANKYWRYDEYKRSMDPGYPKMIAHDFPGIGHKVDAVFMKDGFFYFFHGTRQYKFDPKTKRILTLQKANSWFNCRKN
# Description: (§2) Another study was conducted in which the elastin and MMP activity of Compound 1 was evaluated. The methodology for the study of MMP-1 and MMP-3 activity was as follows: • A 0.1 g sample of Compound 1 was dissolved in 1 ml DMSO, then it was diluted 100× with Tris buffer (50 mM Iris pH 7.5, 150 mM NaCl, 2 mM CaCl2, 5μ ZnO4, 0.01% Brij-35) to make a stock solution. For the analysis, different concentrations of Compound 1 were used to determine the IC50. The sample and 100 ng/ml MMP-1 enzyme (Anaspec) or MMP-3 enzyme (Anaspec) were incubated at 37° C. for 10 minutes before the addition of 2.25 μM PEPDAB008 substrate (Biozyme). The fluorescence signal was monitored at excitation of 485 nm and emission of 530 nm.
# MMP-3 enzyme = molecular target: T2, MMP-3 enzyme (Homo sapiens, UniProt P08254); test: MMP-3 inhibition; format: biochemical; settings: read-out: Inhibitory concentration (IC50), MMP-3
# T2 construct: purchased Anaspec
# T2 sequence (P08254 100-477, species assumed): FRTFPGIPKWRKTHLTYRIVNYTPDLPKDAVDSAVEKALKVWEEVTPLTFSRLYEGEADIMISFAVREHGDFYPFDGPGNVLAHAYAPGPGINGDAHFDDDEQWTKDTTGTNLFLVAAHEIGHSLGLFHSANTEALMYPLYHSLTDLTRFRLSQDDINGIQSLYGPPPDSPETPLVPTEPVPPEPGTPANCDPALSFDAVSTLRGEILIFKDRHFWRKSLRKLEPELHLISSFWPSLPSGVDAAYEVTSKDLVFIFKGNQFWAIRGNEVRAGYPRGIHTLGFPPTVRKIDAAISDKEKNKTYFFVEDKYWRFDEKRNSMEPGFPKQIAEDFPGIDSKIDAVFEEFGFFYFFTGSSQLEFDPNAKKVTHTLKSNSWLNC
# Description: as §2
# MMP-12 = MMP-12 (Homo sapiens, UniProt P39900); test: MMP-12 (Elastase) inhibition; format: biochemical; settings: read-out: Inhibitory concentration (IC50), MMP-12
# Sequence of MMP-12 (P39900 106-470): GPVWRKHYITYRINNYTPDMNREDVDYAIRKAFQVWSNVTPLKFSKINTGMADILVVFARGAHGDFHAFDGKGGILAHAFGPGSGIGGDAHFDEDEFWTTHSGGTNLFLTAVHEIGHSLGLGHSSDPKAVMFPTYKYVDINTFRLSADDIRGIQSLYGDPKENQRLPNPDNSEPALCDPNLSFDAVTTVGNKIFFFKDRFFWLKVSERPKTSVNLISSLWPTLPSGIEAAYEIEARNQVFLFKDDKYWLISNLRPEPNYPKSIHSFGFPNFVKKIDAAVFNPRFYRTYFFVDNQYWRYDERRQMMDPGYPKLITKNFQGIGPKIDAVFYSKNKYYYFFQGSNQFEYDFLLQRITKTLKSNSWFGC
# Description: The methodology for the study of MMP-12 activity was as follows: • A 0.1 g sample of Compound 1 was dissolved in 1 ml DMSO, then it was diluted 100× with 1.4% randomly methylated cyclodextrin in Iris buffer (50 mM Tris pH 7.5, 150 mM NaCl, 2 mM CaCl2, 5μ ZnSO4, 0.01% Brij-35) to make a stock solution. For the analysis, different concentrations of Compound 1 were used to determine the IC50. In the well: 0.2 mM substrate, 0.25 μg/ml enzyme, and sample were mixed and read according to the reference (TSA Thring et al. BMC Complementary and Alternate Medicine, 9, 27, 2009; https://doi.org/10.1186/1472-6882-9-27)
# NOX = settings: Keratinocytes
# Sequence of iNOS (P35228 whole entry, species assumed): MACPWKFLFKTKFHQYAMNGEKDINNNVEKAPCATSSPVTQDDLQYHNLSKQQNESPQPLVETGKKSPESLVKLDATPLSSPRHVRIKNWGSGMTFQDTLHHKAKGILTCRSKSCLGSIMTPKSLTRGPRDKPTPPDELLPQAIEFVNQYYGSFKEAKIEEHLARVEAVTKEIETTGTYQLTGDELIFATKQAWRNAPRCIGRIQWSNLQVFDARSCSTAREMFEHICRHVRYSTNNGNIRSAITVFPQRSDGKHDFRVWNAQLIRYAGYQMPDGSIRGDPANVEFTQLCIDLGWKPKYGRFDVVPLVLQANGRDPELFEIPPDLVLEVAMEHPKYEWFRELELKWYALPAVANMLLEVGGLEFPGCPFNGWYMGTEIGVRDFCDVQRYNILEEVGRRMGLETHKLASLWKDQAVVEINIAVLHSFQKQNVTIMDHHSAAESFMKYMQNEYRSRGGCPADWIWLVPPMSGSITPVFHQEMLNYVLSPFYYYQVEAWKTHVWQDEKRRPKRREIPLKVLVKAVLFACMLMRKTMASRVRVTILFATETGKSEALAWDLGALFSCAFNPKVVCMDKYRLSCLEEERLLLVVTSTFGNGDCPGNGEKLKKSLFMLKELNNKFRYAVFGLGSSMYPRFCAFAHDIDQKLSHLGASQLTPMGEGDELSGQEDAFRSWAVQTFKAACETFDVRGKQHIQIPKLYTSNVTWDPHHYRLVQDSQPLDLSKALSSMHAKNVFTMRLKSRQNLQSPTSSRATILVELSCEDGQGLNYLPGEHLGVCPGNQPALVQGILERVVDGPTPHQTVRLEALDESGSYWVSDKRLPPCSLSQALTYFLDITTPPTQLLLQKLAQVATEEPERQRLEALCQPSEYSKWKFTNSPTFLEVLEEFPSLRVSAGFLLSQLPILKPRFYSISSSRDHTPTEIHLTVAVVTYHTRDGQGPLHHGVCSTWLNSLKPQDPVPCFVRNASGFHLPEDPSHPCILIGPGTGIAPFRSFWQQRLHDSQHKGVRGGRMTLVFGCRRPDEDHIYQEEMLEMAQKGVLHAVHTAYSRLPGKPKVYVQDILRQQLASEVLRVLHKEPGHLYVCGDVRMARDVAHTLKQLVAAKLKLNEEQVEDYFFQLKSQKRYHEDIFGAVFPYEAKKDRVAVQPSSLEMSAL
compound,measurement,setting,value
"COc1cc(CC(C(C)=O)C(C)=O)ccc1O [Compound 1, Acetyl Zingerone]",pIC50,iNOS,3.71
same,Cell Metabolism Standardized to cell # (% Control),[1]; 0.5 μg/ml,123 % Control
same,MTT (% Control),[1]; 0.5 μg/ml,122 % Control
same,Cell Metabolism Standardized to cell # (% Control),[1]; 2 μg/ml,136 % Control
same,MTT (% Control),[1]; 2 μg/ml,137 % Control
same,Cell Metabolism Standardized to cell # (% Control),[1]; 5 μg/ml,174 % Control
same,MTT (% Control),[1]; 5 μg/ml,164 % Control
same,"Microarray, COL1A1 gene expression",COL1A1,+1.6
same,"Microarray, COL4A1 gene expression",COL4A1,+1.6
same,"Microarray, COL11A1 gene expression",COL11A1 [2],+1.6
same,"Microarray, COL14A1 gene expression",COL14A1 [3],+4.3
same,"Microarray, ELN gene expression",ELN,+1.7
same,"Microarray, TIMP2 gene expression",TIMP2,+1.5
same,"PCR array, COL5A1 gene expression",COL5A1,+2.7
same,"PCR array, COL11A1 gene expression",COL11A1 [4],+1.9
same,"PCR array, COL14A1 gene expression",COL14A1 [5],+2.1
same,"PCR array, LAMC1 gene expression",LAMC1,+2.0
same,"PCR array, ITGA1 gene expression",ITGA1,+2.2
same,"PCR array, ITGB3 gene expression",ITGB3,+2.0
same,"PCR array, ITGB5 gene expression",ITGB5,+1.7
same,"PCR array, MMP3 gene expression",MMP3,−2.5
same,% Collagen 4 Boosting,Collagen type 4; 50 μg/ml,145%
same,% Collagen 4 Boosting,Collagen type 4; 100 μg/ml,245%
same,pIC50,MMP-1 enzyme,2.38
same,pIC50,MMP-3 enzyme,2.67
same,pIC50,MMP-12,2.97
same,reduction of NOX activity,"NOX; UVA, 25 μg/ml",−27%
same,reduction of NOX activity,"NOX; UVA, 50 μg/ml",−38%
same,reduction of NOX activity,"NOX; UVB, 25 μg/ml",−11%
same,reduction of NOX activity,"NOX; UVB, 50 μg/ml",−29%
